Reference: patent US20230295162A1 (EÖTVÖS LORÁND TUDOMÁNYEGYETEM, priority 2020, published 2023)

Key:
[1] = tested on: A-431 (human squamous carcinoma) cells; test: Short term cytotoxicity, MTT assay; format: cell-based; settings: 1 h treatment then 72 h culture, read-out: cytotoxicity expressed in IC50, A-431
Procedure: (§1) For the short term cytotoxicity studies the A-431 (human squamous carcinoma) and U-87 (human primary glioblastoma) cells were cultured in RPMI-1640 medium supplemented with 10% FCS (fetal calf serum, Sigma Ltd.), 2 mM L-glutamine, and […] gentamicin. Cell cultures were maintained at 37° C. in a humidified atmosphere with 5% CO2. The cells were grown to confluency and were distributed into 96-well plate with initial cell number of 5.0×10^3 per well. After 24 h incubation at 37° C., the cells were treated with the compounds in 200 μL final volume containing 1.0 v/v % DMSO. The cells were incubated with the compounds at 10^−4-10^2 μM concentration range for 1 h. Control cells were treated with serum free medium (RPMI-1640) only or with DMSO (c=1.0 v/v %) at 37° C. for 1 h. After incubation the cells were washed twice with serum free (RPMI-1640) medium. To determine the in vitro cytostatic effect, the cells were cultured for a further 72 h in 10% serum containing medium. MTT-solution ([…], 2 mg/mL, final concentration: 0.37 mg/mL) was added to each well. The respiratory chain [26, 27] and other electron transport systems reduce MTT and thereby form non-water-soluble violet formazane crystals within the cell. […] After 4 h of incubation the cells were centrifuged for 5 min (900 g) and the supernatant was removed. The obtained formazane crystals were dissolved in DMSO ([…]) and optical density (OD) of the samples was measured at λ=540 and 620 nm, respectively, using ELISA Reader (iEMS Reader, Labsystems, Finland). OD620 values were subtracted from OD540 values. The percent of cytostasis was calculated by using the following equation: Cytostatic effect (%)=[1−(ODtreated/ODcontrol)]×100 Values ODtreated and ODcontrol correspond to the optical densities of the treated and the control cells, respectively. In each case two independent experiments were carried out with 4 parallel measurements. […] The curves were defined using Microcal™ Origin1 (version 7.5) software: cytostasis was plotted as a function of concentration, fitted to a sigmoidal curve, and based on this curve, the half maximal inhibitory concentration (IC50) value was determined.

[2] = tested on: U-87 (human primary glioblastoma) cells; test: Short term cytotoxicity, MTT assay; format: cell-based; settings: 1 h treatment then 72 h culture, read-out: cytotoxicity expressed in IC50, U-87
Procedure: as §1

**Q.** With `O=C1C2=C(CCN(Cc3cccc(F)c3)C2)N2CCN=C2N1Cc1ccc(C(F)(F)F)cc1` [I/3, reference compound] as the compound, how does the IC50 [1] read?
**A.** The IC50 was under 0.2 µM.

**Q.** And the IC50 [2]?
**A.** The IC50 was 4.16 µM.
